Test results from article PMC10648852, “Molecular drivers of resistance to sulbactam-durlobactam in contemporary clinical isolates of Acinetobacter baumannii” (Antimicrobial Agents and Chemotherapy, 2023).

Assays:
Experiment in all cases: microbe, parasite or virus in culture
[1] = system: ABC clinical isolates with SUL-DUR MIC > 4 µg/mL; type: cell-based, Acinetobacter baumannii-calcoaceticus complex
Procedure: (§1) The following report describes the genomic analysis of these isolates for likely resistance mechanisms. Biochemical analysis of purified PBP3 and phenotypic analyses of both clinical and isogenic strains were also conducted to determine the relative impact of key resistance determinants to SUL-DUR antibacterial activity.
(§2) Antimicrobial susceptibility testing was performed using broth microdilution following standardized methods established by the Clinical Laboratory Standards Institute (CLSI) ([35], [36]). […] MIC values were interpreted using CLSI breakpoints for all antimicrobial agents except those for which CLSI breakpoints are not available ([35]). SUL-DUR was tested as twofold dilutions of sulbactam in combination with a fixed concentration of 4 µg/mL durlobactam ([35]).

[2] = system: A. baumannii clinical isolates; type: cell-based
Procedure: as §1, §2

[3] = system: A. nosocomialis clinical isolate; type: cell-based; settings: isolate ARC7023 (IHMA 2118812), France, BSI, 2019
Procedure: as §1, §2

[4] = system: A. pittii clinical isolates; type: cell-based
Procedure: as §1, §2

colistin [CST]
MIC50 [1]: 0.5 µg/mL
MIC90 [1]: 1 µg/mL
MIC Max [1]: >8 µg/mL
MIC Min [1]: ≤0.25 µg/mL
MIC ([2]; isolate ARC6644 (IHMA 1420327), Mexico, UTI, 2016): ≤0.25 µg/mL
MIC ([2]; isolate ARC6645 (IHMA 1435703), France, UTI, 2016): ≤0.25 µg/mL
MIC ([2]; isolate ARC6646 (IHMA 1484127), United States, RTI, 2016): 0.5 µg/mL
MIC ([2]; isolate ARC6647 (IHMA 1386786), Argentina, RTI, 2016): 0.5 µg/mL
MIC ([2]; isolate ARC6648 (IHMA 1407634), Spain, RTI, 2016): ≤0.25 µg/mL
MIC ([2]; isolate ARC6650 (IHMA 1457337), Argentina, RTI, 2016): 0.5 µg/mL
MIC ([2]; isolate ARC6652 (IHMA 1465642), Belgium, RTI, 2016): ≤0.25 µg/mL
MIC ([2]; isolate ARC6653 (IHMA 1308777), Vietnam, RTI, 2016): 0.5 µg/mL
MIC ([2]; isolate ARC6799 (IHMA 1562935), Spain, UTI, 2017): 0.5 µg/mL
MIC ([2]; isolate ARC6800 (IHMA 1557526), Turkey, RTI, 2017): >8 µg/mL
MIC ([2]; isolate ARC6801 (IHMA 1662094), Thailand, RTI, 2017): ≤0.25 µg/mL
MIC ([2]; isolate ARC6802 (IHMA 1557073), Spain, UTI, 2017): ≤0.25 µg/mL
MIC ([2]; isolate ARC6803 (IHMA 1589408), Belgium, UTI, 2017): ≤0.25 µg/mL
MIC ([2]; isolate ARC6805 (IHMA 1558650), United States, RTI, 2017): ≤0.25 µg/mL
MIC ([2]; isolate ARC6808 (IHMA 1557168), Spain, RTI, 2017): ≤0.25 µg/mL
MIC ([2]; isolate ARC6809 (IHMA 1699528), Guatemala, RTI, 2017): 0.5 µg/mL
MIC ([2]; isolate ARC6810 (IHMA 1699548), Guatemala, RTI, 2017): 0.5 µg/mL
MIC ([2]; isolate ARC6812 (IHMA 1699530), Guatemala, RTI, 2017): 0.5 µg/mL
MIC ([2]; isolate ARC6813 (IHMA 1699543), Guatemala, UTI, 2017): ≤0.25 µg/mL
MIC ([2]; isolate ARC6814 (IHMA 1699512), Guatemala, RTI, 2017): 0.5 µg/mL
MIC ([2]; isolate ARC6815 (IHMA 1699513), Guatemala, RTI, 2017): 0.5 µg/mL
MIC ([2]; isolate ARC6816 (IHMA 1699521), Guatemala, RTI, 2017): 0.5 µg/mL
MIC ([2]; isolate ARC6817 (IHMA 1699523), Guatemala, RTI, 2017): 0.5 µg/mL
MIC ([2]; isolate ARC6818 (IHMA 1683261), Thailand, RTI, 2017): ≤0.25 µg/mL
MIC ([2]; isolate ARC6819 (IHMA 1683267), Thailand, RTI, 2017): 1 µg/mL
MIC ([2]; isolate ARC6820 (IHMA 1647876), Argentina, RTI, 2017): ≤0.25 µg/mL
MIC ([2]; isolate ARC6821 (IHMA 1699517), Guatemala, RTI, 2017): 0.5 µg/mL
MIC ([2]; isolate ARC6822 (IHMA 1637626), Guatemala, RTI, 2017): 0.5 µg/mL
MIC ([2]; isolate ARC6823 (IHMA 1620872), Greece, SSSI, 2017): 1 µg/mL
MIC ([2]; isolate ARC6824 (IHMA 1625487), Argentina, BSI, 2017): 1 µg/mL
MIC ([2]; isolate ARC6937 (IHMA 1562926), Spain, UTI, 2017): 0.5 µg/mL
MIC ([2]; isolate ARC6950 (IHMA 1820064), Israel, RTI, 2018): 0.5 µg/mL
MIC ([2]; isolate ARC6953 (IHMA 1909827), Turkey, IAI, 2018): 0.5 µg/mL
MIC ([2]; isolate ARC6954 (IHMA 1838192), Guatemala, SSSI, 2018): 0.5 µg/mL
MIC ([2]; isolate ARC6955 (IHMA 1825425), United States, RTI, 2018): 0.5 µg/mL
MIC ([2]; isolate ARC7008 (IHMA 2009813), Thailand, BSI, 2019): 0.5 µg/mL
MIC ([2]; isolate ARC7009 (IHMA 2043611), United States, UTI, 2019): 0.5 µg/mL
MIC ([2]; isolate ARC7010 (IHMA 2043398), United States, RTI, 2019): 0.5 µg/mL
MIC ([2]; isolate ARC7011 (IHMA 2104553), Germany, RTI, 2019): 0.5 µg/mL
MIC ([2]; isolate ARC7012 (IHMA 2010001), Thailand, RTI, 2019): 1 µg/mL
MIC ([2]; isolate ARC7013 (IHMA 1962831), Argentina, RTI, 2019): 0.5 µg/mL
MIC ([2]; isolate ARC7014 (IHMA 2045328), Guatemala, IAI, 2019): 1 µg/mL
MIC ([2]; isolate ARC7015 (IHMA 2045327), Guatemala, UTI, 2019): 0.5 µg/mL
MIC ([2]; isolate ARC7016 (IHMA 2148441), Brazil, BSI, 2019): 0.5 µg/mL
MIC ([2]; isolate ARC7017 (IHMA 2148446), Brazil, BSI, 2019): ≤0.25 µg/mL
MIC ([2]; isolate ARC7018 (IHMA 2045454), Guatemala, IAI, 2019): 0.5 µg/mL
MIC ([2]; isolate ARC7019 (IHMA 2114463), Thailand, RTI, 2019): 0.5 µg/mL
MIC ([2]; isolate ARC7020 (IHMA 2045326), Guatemala, RTI, 2019): 0.5 µg/mL
MIC ([2]; isolate ARC7021 (IHMA 1966347), Guatemala, RTI, 2019): 1 µg/mL
MIC ([2]; isolate ARC7022 (IHMA 2045319), Guatemala, IAI, 2019): 0.5 µg/mL
MIC ([2]; isolate ARC7024 (IHMA 2059448), Turkey, RTI, 2019): 1 µg/mL
MIC ([2]; isolate ARC7025 (IHMA 2002121), Spain, RTI, 2019): 0.5 µg/mL
MIC ([2]; isolate ARC7026 (IHMA 2104494), Guatemala, BSI, 2019): 0.5 µg/mL
MIC ([2]; isolate ARC7082 (IHMA 2160640), Belgium, BSI, 2020): ≤0.25 µg/mL
MIC ([2]; isolate ARC7083 (IHMA 2163687), United States, RTI, 2020): 0.5 µg/mL
MIC ([2]; isolate ARC7084 (IHMA 2189596), Germany, RTI, 2020): ≤0.25 µg/mL
MIC ([2]; isolate ARC7085 (IHMA 2205747), Guatemala, IAI, 2020): ≤0.25 µg/mL
MIC ([2]; isolate ARC7086 (IHMA 2207563), Israel, RTI, 2020): ≤0.25 µg/mL
MIC ([2]; isolate ARC7088 (IHMA 2215554), Turkey, BSI, 2020): ≤0.25 µg/mL
MIC ([2]; isolate ARC7089 (IHMA 2240345), Argentina, BSI, 2020): ≤0.25 µg/mL
MIC ([2]; isolate ARC7090 (IHMA 2244410), Poland, RTI, 2020): >8 µg/mL
MIC ([2]; isolate ARC7091 (IHMA 2244564), Australia, RTI, 2020): ≤0.25 µg/mL
MIC ([2]; isolate ARC7092 (IHMA 2258772), United States, BSI, 2020): 0.5 µg/mL
MIC ([2]; isolate ARC7093 (IHMA 2258783), United States, RTI, 2020): ≤0.25 µg/mL
MIC ([2]; isolate ARC7094 (IHMA 2296423), Turkey, RTI, 2020): ≤0.25 µg/mL
MIC ([2]; isolate ARC7095 (IHMA 2320843), Turkey, BSI, 2020): ≤0.25 µg/mL
MIC ([2]; isolate ARC7156 (IHMA 2455450), Greece, RTI, 2021): 8 µg/mL
MIC ([2]; isolate ARC7158 (IHMA 2523738), Italy, BSI, 2021): 0.25 µg/mL
MIC ([2]; isolate ARC7159 (IHMA 2456229), Malaysia, RTI, 2021): 0.25 µg/mL
MIC ([2]; isolate ARC7160 (IHMA 2458626), Thailand, RTI, 2021): 0.25 µg/mL
MIC ([2]; isolate ARC7161 (IHMA 2429252), Ukraine, RTI, 2021): 0.5 µg/mL
MIC ([2]; isolate ARC7162 (IHMA 2411847), United States, BSI, 2021): 0.25 µg/mL
MIC ([2]; isolate ARC7163 (IHMA 2477704), United States, BSI, 2021): 0.25 µg/mL
MIC [3]: 1 µg/mL
MIC ([4]; isolate ARC6949 (IHMA 1898982), Romania, RTI, 2018): 0.5 µg/mL
MIC ([4]; isolate ARC6951 (IHMA 1776233), Philippines, RTI, 2018): ≤0.25 µg/mL
MIC ([4]; isolate ARC6952 (IHMA 1899008), Romania, RTI, 2018): 1 µg/mL
MIC ([4]; isolate ARC7087 (IHMA 2212062), Colombia, BSI, 2020): ≤0.25 µg/mL
